{"source": "patent US9604925B2", "about": "“Class II HMG-CoA reductase inhibitors and methods of use” (Purdue Research Foundation, priority 2012, dated 2017)", "key": {"[1]": {"target": "S. aureus HMGR (Staphylococcus aureus, UniProt Q9FD86)", "sequence (Q9FD86 entry or part of it)": "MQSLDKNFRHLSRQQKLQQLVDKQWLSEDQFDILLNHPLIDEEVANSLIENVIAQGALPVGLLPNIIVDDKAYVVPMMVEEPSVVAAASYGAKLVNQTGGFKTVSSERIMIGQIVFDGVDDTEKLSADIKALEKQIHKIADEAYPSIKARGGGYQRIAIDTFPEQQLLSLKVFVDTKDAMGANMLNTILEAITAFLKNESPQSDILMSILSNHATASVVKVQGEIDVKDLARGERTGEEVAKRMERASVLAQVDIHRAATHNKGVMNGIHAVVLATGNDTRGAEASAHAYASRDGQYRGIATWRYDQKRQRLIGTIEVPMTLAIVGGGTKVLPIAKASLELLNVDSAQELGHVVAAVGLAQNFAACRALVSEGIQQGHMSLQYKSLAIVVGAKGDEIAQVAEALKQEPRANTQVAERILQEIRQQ", "assay": "biochemical"}, "[2]": {"target": "E. faecalis II-HMGR (Enterococcus faecalis, UniProt Q9FD70)", "assay": "biochemical"}, "[3]": {"tested_on": "J774A.1 cells", "assay": "In vitro cell viability/cytotoxicity MTS assay", "type": "cell-based", "conditions": "100 μM, 24 hours", "protocol": "Cytotoxicity of the compounds was evaluated using J774A.1 cells (mitochondrial function) in the CellTiter 96® AQueous Non-Radioactive Cell Proliferation Assay (Promega). […] Formazan is measured by measuring the absorbance at 490 nm. Briefly, ˜2×10^4 J774A.1 cells suspended in 200 μL DMEM supplemented with 10% fetal bovine serum (FBS), L-glutamine, NaHCO3, pyridoxine-HCl, and […] glucose and preserved with 1% penicillin-streptomycin solution were seeded in 96-well plates and incubated at 37° C. in a 5% CO2 atmosphere. The cells were cultured for 24 hours (60% confluency) before the assays. The J774A.1 cells were further incubated with 100 μM of compounds (2f, […], 2j, and 2e) and DMSO as a control for 24 hours. The culture media was discarded, and the cells in each well were washed with PBS and re-suspended with 100 μL of cell culture media prior to addition of the assay reagent. The plates were incubated for 4 hours at 37° C. in a humidified 5% CO2 atmosphere. The absorbance at 490 nm was recorded using a 96-well Elisa plate reader (SoftMax ProInc., USA). Results were expressed as the percentage mean absorbance by cells upon incubation with various treatments (compounds 2f, 2j, 2i, and 2e) with respect to incubation with DMSO. The results are expressed as means from six measurements±SD."}, "[4]": {"tested_on": "Bacillus anthracis Sterne strain (34F2)", "type": "cell-based"}, "[5]": {"tested_on": "Bacillus subtilis", "assay": "Screen and MIC/MBC against Bacillus subtilis", "type": "cell-based"}, "[6]": {"tested_on": "Bacillus cereus", "assay": "Screen and MIC/MBC against Bacillus cereus", "type": "cell-based"}, "[7]": {"tested_on": "Listeria monocytogenes", "assay": "Screen and MIC/MBC against Listeria monocytogenes", "type": "cell-based"}, "[8]": {"tested_on": "Brucella abortus", "type": "cell-based"}, "[9]": {"tested_on": "Candida albicans ATCC 18804", "assay": "MIC/MFC against Candida albicans in YM broth", "type": "cell-based", "conditions": "yeast medium broth", "protocol": "Antifungal activities of 22 HMG-CoA Reductase inhibitors were initially tested at 100 μM concentration against Candida albicans ATCC 18804."}, "[10]": {"tested_on": "Staphylococcus aureus ATCC 6538 planktonic organisms (not in biofilm)", "assay": "MIC/MBC against planktonic S. aureus ATCC 6538", "type": "cell-based"}, "[11]": {"tested_on": "Staphylococcus aureus ATCC 6538 adherent organisms (biofilm)", "assay": "MIC/MBC in adherent-cell biofilm of S. aureus ATCC 6538", "type": "cell-based", "protocol": "An adherent biofilm for susceptibility testing was formed using a clinical isolate of Staphylococcus aureus (ATCC 6538). S. aureus biofilms were prepared in a tissue culture non-treated polystyrene 96-well plate (Corning) and washed with phosphate-buffered saline (PBS) to remove unbound bacteria. Subsequently, serial twofold dilutions of the compounds in MHB were added to wells containing adherent organisms. The polystyrene plates were incubated for 20 h at 37° C. The MIC was taken as the lowest drug concentration at which observable growth was inhibited."}, "[12]": {"tested_on": "vancomycin resistant Enterococcus faecalis (VRE) ATCC 51299", "assay": "MIC/MBC micro dilution against VRE", "conditions": "VRE ATCC 51299, MHB, 20 hours"}, "[13]": {"tested_on": "methicillin-resistant Staphylococcus aureus (MRSA) ATCC 43300", "assay": "MIC/MBC micro dilution against MRSA"}, "[14]": {"tested_on": "MRSA", "assay": "Time-kill assay against MRSA in MHB"}, "[15]": {"tested_on": "vancomycin intermediate Staphylococcus aureus (VISA) NRS1", "assay": "MIC/MBC against clinical VISA isolate"}, "[16]": {"tested_on": "clinical methicillin-resistant Staphylococcus aureus (MRSA) isolates", "assay": "MIC/MBC against clinical MRSA isolates"}, "[17]": {"tested_on": "C. elegans infected with VRE", "assay": "Treatment of C. elegans infected with VRE", "conditions": "VRE-infected worms, 100 μM"}, "[18]": {"tested_on": "C. elegans infected with MRSA", "assay": "Treatment of C. elegans infected with MRSA", "conditions": "MRSA-infected worms, 100 μM"}}, "note": "Marks after values point to notes of the source that are not given here.", "data": [{"smiles": "CCCCc1ccc(NS(=O)(=O)c2ccc(O)c(C(=O)O)c2)cc1", "note": "[Compound 1, 5-[N-(4-butylphenyl)sulfamoyl]-2-hydroxybenzoic acid]", "values": [{"measurement": "IC50", "setting": "[1]", "value": "91 ± 5", "unit": "µM"}, {"measurement": "IC50", "setting": "[2]", "value": 5, "unit": "µM"}]}, {"smiles": "CCCCCCCCCCc1ccc(NS(=O)(=O)c2ccc(O)c(C(=O)O)c2)cc1", "note": "[Compound 2f, 5-[N-(4-decylphenyl)sulfamoyl]-2-hydroxybenzoic acid]", "values": [{"measurement": "IC50", "setting": "[1]", "value": 7.2, "unit": "µM"}, {"measurement": "percentage mean absorbance at 490 nm (MTS) versus DMSO", "setting": "[3]", "value": "no significant differences in percentage mean absorption"}, {"measurement": "inhibition of growth in initial screen", "setting": "[4]; 100 μM", "value": "showed inhibition of growth"}, {"measurement": "Bacillus anthracis MBC", "setting": "[4]; MHB", "value": "16/16"}, {"measurement": "Bacillus anthracis MIC", "setting": "[4]; MHB", "value": "16/16"}, {"measurement": "inhibition of growth in initial screen", "setting": "[5]; 100 μM", "value": "showed inhibition of growth"}, {"measurement": "Bacillus subtilis MBC", "setting": "[5]; MHB", "value": "16/16"}, {"measurement": "Bacillus subtilis MIC", "setting": "[5]; MHB", "value": "16/16"}, {"measurement": "inhibition of growth in initial screen", "setting": "[6]; 100 μM", "value": "showed inhibition of growth"}, {"measurement": "Bacillus cereus MBC", "setting": "[6]; MHB", "value": "16/16"}, {"measurement": "Bacillus cereus MIC", "setting": "[6]; MHB", "value": "16/16"}, {"measurement": "inhibition of growth in initial screen", "setting": "[7]; 100 μM", "value": "showed inhibition of growth"}, {"measurement": "Listeria monocytogenes MBC", "setting": "[7]; MHB", "value": "> 128", "unit": "µM"}, {"measurement": "Listeria monocytogenes MIC", "setting": "[7]; MHB", "value": 64, "unit": "µM"}, {"measurement": "inhibition of growth in initial screen", "setting": "[8]; 100 μM", "value": "showed inhibition of growth"}, {"measurement": "Brucella abortus (single value, head does not say MIC or MBC)", "setting": "[8]; MHB", "value": 128, "unit": "µM"}, {"measurement": "Candida albicans MFC", "setting": "[9]", "value": "16/16"}, {"measurement": "Candida albicans MIC", "setting": "[9]", "value": "16/16"}, {"measurement": "Planktonic organisms (not in biofilm) MBC", "setting": "[10]", "value": 16, "unit": "µM"}, {"measurement": "Planktonic organisms (not in biofilm) MIC", "setting": "[10]", "value": 16, "unit": "µM"}, {"measurement": "Adherent organisms (biofilm) MIC^b", "setting": "[11]; S. aureus ATCC 6538, 20 h", "value": 64, "unit": "µM"}, {"measurement": "Adherent organisms (biofilm) MBC^b", "setting": "[11]; S. aureus ATCC 6538, regrowth 20 h in antibiotic-free MHB", "value": 128, "unit": "µM"}, {"measurement": "VRE MBC", "setting": "[12]", "value": "32/32"}, {"measurement": "MRSA MBC", "setting": "[13]; MRSA ATCC 43300, MHB, 20 hours, Table 2", "value": "16/16"}, {"measurement": "MBC", "setting": "[13]; Staphylococcus aureus", "value": 16, "unit": "µM"}, {"measurement": "MIC", "setting": "[13]; Staphylococcus aureus", "value": 16, "unit": "µM"}, {"measurement": "time-kill of MRSA cells", "setting": "[14]; 1× MIC or 2× MIC", "value": "four hours are required to eliminate bacteria completely"}, {"measurement": "time-kill of MRSA cells", "setting": "[14]; 3× MIC", "value": "complete elimination of MRSA cells within a two-hour window"}, {"measurement": "MBC", "setting": "[15]", "value": 4, "unit": "µM"}, {"measurement": "MIC", "setting": "[15]", "value": 4, "unit": "µM"}, {"measurement": "MBC", "setting": "[16]; MRSA / NRS123 / USA400", "value": 16, "unit": "µM"}, {"measurement": "MIC", "setting": "[16]; MRSA / NRS123 / USA400", "value": 4, "unit": "µM"}, {"measurement": "MBC", "setting": "[16]; MRSA / NRS382 / USA100", "value": 8, "unit": "µM"}, {"measurement": "MIC", "setting": "[16]; MRSA / NRS382 / USA100", "value": 8, "unit": "µM"}, {"measurement": "MBC", "setting": "[16]; MRSA / NRS383 / USA200", "value": 4, "unit": "µM"}, {"measurement": "MIC", "setting": "[16]; MRSA / NRS383 / USA200", "value": 4, "unit": "µM"}, {"measurement": "MBC", "setting": "[16]; MRSA / NRS384 / USA300", "value": 8, "unit": "µM"}, {"measurement": "MIC", "setting": "[16]; MRSA / NRS384 / USA300", "value": 4, "unit": "µM"}, {"measurement": "MBC", "setting": "[16]; MRSA / NRS385 / USA500", "value": 8, "unit": "µM"}, {"measurement": "MIC", "setting": "[16]; MRSA / NRS385 / USA500", "value": 4, "unit": "µM"}, {"measurement": "MBC", "setting": "[16]; MRSA / NRS386 / USA700", "value": 8, "unit": "µM"}, {"measurement": "MIC", "setting": "[16]; MRSA / NRS386 / USA700", "value": 4, "unit": "µM"}, {"measurement": "MBC", "setting": "[16]; MRSA / NRS387 / USA800", "value": 8, "unit": "µM"}, {"measurement": "MIC", "setting": "[16]; MRSA / NRS387 / USA800", "value": 4, "unit": "µM"}, {"measurement": "MBC", "setting": "[16]; MRSA / NRS483", "value": 8, "unit": "µM"}, {"measurement": "MIC", "setting": "[16]; MRSA / NRS483", "value": 4, "unit": "µM"}, {"measurement": "MBC", "setting": "[16]; MRSA / NRS484", "value": 8, "unit": "µM"}, {"measurement": "MIC", "setting": "[16]; MRSA / NRS484", "value": 4, "unit": "µM"}, {"measurement": "Log CFU/worm", "setting": "[17]; 16 hours treatment", "value": "0.70 ± 0.37", "unit": "Log CFU/worm"}, {"measurement": "Log Reduction", "setting": "[17]; versus DMSO control", "value": "4.20*"}, {"measurement": "Log CFU/worm", "setting": "[18]; 16 hours treatment", "value": "2.33 ± 0.09", "unit": "Log CFU/worm"}, {"measurement": "Log Reduction", "setting": "[18]; versus DMSO control", "value": "2.71*"}]}]}
